Experiments:
Format in all cases: in vivo
Sunflower = test: Test C preemergence; conditions: scale 0 to 100
[1] = tested on: blackgrass (Alopecurus myosuroides); test: Test B postemergence
How it was run: (§1)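 Ratings on a 0 to 100 visual scale (100 complete control) compare treated plants with controls 13 to 15 days after application. Treatments were pre- or postemergence sprays of compound in non-phytotoxic solvent with surfactant.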

[2] = tested on: lambsquarters (Chenopodium album); test: Test B postemergence
How it was run: as §1

[3] = tested on: barnyardgrass (Echinochloa crus-galli); test: Test C flooded paddy test; conditions: for Barnyardgrass plant response rating: Flooded Paddy, scale 0 to 100, 0 no effect, 100 complete control; for Plant response rating, Barnyardgrass: flooded paddy test, scale 0 to 100 (0 no effect, 100 complete control)
How it was run: (§2)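 Flooded paddy, 2-leaf stage at treatment. Readout: visual % control vs untreated, 0–100, at 12–14 d in greenhouse.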

[4] = tested on: duck salad (Heteranthera limosa); test: Test C flooded paddy test; conditions: for Ducksalad plant response rating: Flooded Paddy, scale 0 to 100, 0 no effect, 100 complete control; for Plant response rating, Ducksalad: flooded paddy test, scale 0 to 100 (0 no effect, 100 complete control)
How it was run: as §2

rice (Oryza saliva) = test: Test C flooded paddy test; conditions: for Rice plant response rating: Flooded Paddy, scale 0 to 100, 0 no effect, 100 complete control; for Plant response rating, Rice: flooded paddy test, scale 0 to 100 (0 no effect, 100 complete control)
How it was run: as §2

[5] = tested on: smallflower flatsedge (Cyperus difformis); test: Test C flooded paddy test; conditions: for Flatsedge plant response rating: Flooded Paddy, scale 0 to 100, 0 no effect, 100 complete control; for Plant response rating, Flatsedge: flooded paddy test, scale 0 to 100 (0 no effect, 100 complete control)
How it was run: as §2

[6] = Rate 125 g/ha, scale 0 (no effect) to 100 (complete control), 13 to 15 days
[7] = Rate 500 g/ha, scale 0 to 100, 0 is no effect, 100 is complete control, 13 to 15 days
[8] = Rate 125 g/ha, scale 0 to 100, 0 no effect, 100 complete control

Structure (SMILES) | Plant response rating, Sunflower (Sunflower; Rate 62 g/ha) | Plant response rating, Blackgrass [1, 6] | Plant response rating, Blackgrass [1, 7] | Plant response rating, Lambsquarters [2, 7] | Barnyardgrass plant response rating ([3]; Rate 250 g/ha) | Barnyardgrass plant response rating ([3]; Rate 500 g/ha) | Plant response rating, Barnyardgrass ([3]; Rate 62 g/ha) | Plant response rating, Barnyardgrass ([3]; Rate 125 g/ha) | Ducksalad plant response rating ([4]; Rate 250 g/ha) | Ducksalad plant response rating ([4]; Rate 500 g/ha) | Plant response rating, Ducksalad ([4]; Rate 62 g/ha) | Plant response rating, Ducksalad ([4]; Rate 125 g/ha) | Rice plant response rating (rice (Oryza saliva); Rate 250 g/ha) | Rice plant response rating (rice (Oryza saliva); Rate 500 g/ha) | Plant response rating, Rice (rice (Oryza saliva); Rate 62 g/ha) | Plant response rating, Rice (rice (Oryza saliva); Rate 125 g/ha) | Flatsedge plant response rating ([5]; Rate 250 g/ha) | Flatsedge plant response rating ([5]; Rate 500 g/ha) | Plant response rating, Flatsedge ([5]; Rate 62 g/ha) | Plant response rating, Flatsedge ([5]; Rate 125 g/ha) | further results
CCC(C)c1ccn(C2CCN(c3cccc(OC)c3)C2=O)n1 (stereo not drawn) [Compound 95] | 0 | 0 | 0 | 90 | 100 | 100 | 70 | 70 | 100 | 100 | 70 | 90 | 70 | 90 | 0 | 20 | 100 | 100 | 90 | 100 | 
CCC(CC)c1ccn(C2CCN(c3cccc(OC)c3)C2=O)n1 (stereo not drawn) [Compound 96] | 0 | 0 | 0 | 90 | 100 | 100 | 80 | 80 | 100 | 100 | 80 | 90 | 50 | 60 | 0 | 0 | 100 | 100 | 90 | 90 | 
CCCC(C)c1ccn(C2CCN(c3cccc(OC)c3)C2=O)n1 (stereo not drawn) [Compound 99] | 0 | 0 | 0 | 70 | 20 | 60 | 0 | 0 | 0 | 0 | 0 | 0 | 50 | 80 | 0 | 50 | 100 | 100 | 0 | 90 | 
CCCC(C)c1ccn(C2CCN(c3cccc(C(F)(F)F)c3)C2=O)n1 (stereo not drawn) [Compound 100] | 0 | 0 | 0 | 80 | 0 | 60 | 0 | 0 | 0 | 40 | 0 | 0 | 50 | 80 | 0 | 50 | 70 | 90 | 70 | 70 | 
CC(C)(C)c1ccn(C2CCN(c3cccc([S+]([O-])C(F)(F)F)c3)C2=O)n1 (stereo not drawn) [Compound 101] | 0 | 0 | 0 | 0 | 50 | 90 | 0 | 40 | 100 | 100 | 0 | 90 | 80 | 90 | 0 | 80 | 90 | 100 | 20 | 90 | Plant response rating, Sunflower (Sunflower; Rate 31 g/ha): 0
CC(C)c1cccc(N2CCC(n3ccc(C(C)(C)C)n3)C2=O)c1 (stereo not drawn) [Compound 111] | 0 |  | 20 | 20 | 20 | 30 | 0 | 0 | 0 | 0 | 0 | 0 | 0 | 0 | 0 | 0 | 90 | 90 | 50 | 60 | Plant response rating, Blackgrass [1, 8]: 0; Plant response rating, Lambsquarters [2, 8]: 0
CC(C)OC(=O)c1cccc(N2CCC(n3ccc(C(C)(C)C)n3)C2=O)c1 (stereo not drawn) [Compound 124] | 0 |  |  |  | 0 | 0 | 0 | 0 | 40 | 80 | 0 | 20 | 0 | 0 | 0 | 0 | 30 | 90 | 0 | 20 | Plant response rating, Sunflower (Sunflower; Rate 31 g/ha): 0; Plant response rating, Blackgrass [1, 8]: 0; Plant response rating, Lambsquarters [2, 8]: 20
CCC(C)Oc1cccc(N2CCC(n3ccc(C(C)(C)C)n3)C2=O)c1 (stereo not drawn) [Compound 127] | 0 |  | 0 |  | 20 | 50 | 0 | 0 | 50 | 80 | 0 | 0 | 0 | 0 | 0 | 0 | 80 | 90 | 0 | 0 | Plant response rating, Blackgrass [1, 8]: 0; Plant response rating, Lambsquarters [2, 8]: 30
